Results as given in ChEMBL document CHEMBL3091428, “Synthesis and initial biological evaluation of substituted 1-phenylamino-2-thio-4,5-dimethyl-1H-imidazole derivatives” (Bioorg Med Chem Lett, 2013).
Converted amounts (≈) assume the structure as drawn.

Assays:
TK-10 = experiment: Cytotoxicity against human TK10 cells assessed as cell growth after 48 hrs by SRB assay relative to control; format: functional
RXF 393 = experiment: Cytotoxicity against human RXF393 cells assessed as cell growth after 48 hrs by SRB assay relative to control; format: functional
CAKI-1 = experiment: Cytotoxicity against human Caki1 cells assessed as cell growth after 48 hrs by SRB assay relative to control; format: functional
ACHN = experiment: Cytotoxicity against human ACHN cells assessed as cell growth after 48 hrs by SRB assay relative to control; format: functional
786-0 = experiment: Cytotoxicity against human 786-0 cells assessed as cell growth after 48 hrs by SRB assay relative to control; format: functional
A498 = experiment: Cytotoxicity against human A498 cells assessed as cell growth after 48 hrs by SRB assay relative to control; format: functional
[1] = Cytotoxicity against human NCI-ADR-RES cells assessed as cell growth after 48 hrs by SRB assay relative to control; format: functional
OVCAR-8 = experiment: Cytotoxicity against human OVCAR8 cells assessed as cell growth after 48 hrs by SRB assay relative to control; format: functional
OVCAR-3 = experiment: Cytotoxicity against human OVCAR3 cells assessed as cell growth after 48 hrs by SRB assay relative to control; format: functional
IGROV-1 = experiment: Cytotoxicity against human IGROV1 cells assessed as cell growth after 48 hrs by SRB assay relative to control; format: functional
SK-MEL-5 = experiment: Cytotoxicity against human SK-MEL-5 cells assessed as cell growth after 48 hrs by SRB assay relative to control; format: functional
[2] = Cytotoxicity against human UACC257 cells assessed as cell growth after 48 hrs by SRB assay relative to control; format: functional, UACC-257
SK-MEL-28 = experiment: Cytotoxicity against human SK-MEL-28 cells assessed as cell growth after 48 hrs by SRB assay relative to control; format: functional
SK-MEL-2 = experiment: Cytotoxicity against human SK-MEL-2 cells assessed as cell growth after 48 hrs by SRB assay relative to control; format: functional
M14 = experiment: Cytotoxicity against human M14 cells assessed as cell growth after 48 hrs by SRB assay relative to control; format: functional
MDA-MB-435 = experiment: Cytotoxicity against human MDA-MB-435 cells assessed as cell growth after 48 hrs by SRB assay relative to control; format: functional
LOX IMVI = experiment: Cytotoxicity against human LOXIMVI cells assessed as cell growth after 48 hrs by SRB assay relative to control; format: functional
SNB-75 = experiment: Cytotoxicity against human SNB75 cells assessed as cell growth after 48 hrs by SRB assay relative to control; format: functional
SNB-19 = experiment: Cytotoxicity against human SNB19 cells assessed as cell growth after 48 hrs by SRB assay relative to control; format: functional
SF-539 = experiment: Cytotoxicity against human SF539 cells assessed as cell growth after 48 hrs by SRB assay relative to control; format: functional
SF-295 = experiment: Cytotoxicity against human SF295 cells assessed as cell growth after 48 hrs by SRB assay relative to control; format: functional
SW-620 = experiment: Cytotoxicity against human SW620 cells assessed as cell growth after 48 hrs by SRB assay relative to control; format: functional
KM12 = experiment: Cytotoxicity against human KM12 cells assessed as cell growth after 48 hrs by SRB assay relative to control; format: functional
HCT-116 = experiment: Cytotoxicity against human HCT116 cells assessed as cell growth after 48 hrs by SRB assay relative to control; format: functional
HCT-15 = experiment: Cytotoxicity against human HCT15 cells assessed as cell growth after 48 hrs by SRB assay relative to control; format: functional
COLO 205 = experiment: Cytotoxicity against human COLO205 cells assessed as cell growth after 48 hrs by SRB assay relative to control; format: functional
NCI-H460 = experiment: Cytotoxicity against human NCI-H460 cells assessed as cell growth after 48 hrs by SRB assay relative to control; format: functional
NCI-H322M = experiment: Cytotoxicity against human NCI-H322M cells assessed as cell growth after 48 hrs by SRB assay relative to control; format: functional
NCI-H23 = experiment: Cytotoxicity against human NCI-H23 cells assessed as cell growth after 48 hrs by SRB assay relative to control; format: functional
NCI-H226 = experiment: Cytotoxicity against human NCI-H226 cells assessed as cell growth after 48 hrs by SRB assay relative to control; format: functional
HOP-92 = experiment: Cytotoxicity against human HOP92 cells assessed as cell growth after 48 hrs by SRB assay relative to control; format: functional
HOP-62 = experiment: Cytotoxicity against human HOP62 cells assessed as cell growth after 48 hrs by SRB assay relative to control; format: functional
SR = experiment: Cytotoxicity against human SR cells assessed as cell growth after 48 hrs by SRB assay relative to control; format: functional
RPMI-8226 = experiment: Cytotoxicity against human RPMI8226 cells assessed as cell growth after 48 hrs by SRB assay relative to control; format: functional
K562 = experiment: Cytotoxicity against human K562 cells assessed as cell growth after 48 hrs by SRB assay relative to control; format: functional
HL-60(TB) = experiment: Cytotoxicity against human HL-60(TB) cells assessed as cell growth after 48 hrs by SRB assay relative to control; format: functional
CCRF-CEM = experiment: Cytotoxicity against human CCRF-CEM cells assessed as cell growth after 48 hrs by SRB assay relative to control; format: functional
Pichia kudriavzevii = experiment: Antimicrobial activity against Candida krusei ATCC 6258 after 24 hrs by broth microdilution method; format: functional; settings: ATCC 6258, 24 h
Nakaseomyces glabratus = experiment: Antimicrobial activity against Candida glabrata ATCC 90030 after 24 hrs by broth microdilution method; format: functional; settings: ATCC 90030, 24 h
Staphylococcus aureus = experiment: Antimicrobial activity against Staphylococcus aureus ATCC 25923 after 24 hrs by broth microdilution method; format: functional; settings: ATCC 25923, 24 h
Enterococcus faecalis [3] = experiment: Antimicrobial activity against Enterococcus faecalis ATCC 51299 after 24 hrs by broth microdilution method; format: functional; settings: ATCC 51299, 24 h
Enterococcus faecalis [4] = experiment: Antimicrobial activity against Enterococcus faecalis ATCC 29212 after 24 hrs by broth microdilution method; format: functional; settings: ATCC 29212, 24 h
Escherichia coli [5] = experiment: Antimicrobial activity against Escherichia coli ATCC 25922 after 24 hrs by broth microdilution method; format: functional; settings: ATCC 25922, 24 h
Escherichia coli [6] = experiment: Antimicrobial activity against Escherichia coli ATCC 35218 after 24 hrs by broth microdilution method; format: functional; settings: ATCC 35218, 24 h
BT-549 = experiment: Cytotoxicity against human BT549 cells assessed as cell growth after 48 hrs by SRB assay relative to control; format: functional
MDA-MB-231 = experiment: Cytotoxicity against human MDA-MB-231 cells assessed as cell growth after 48 hrs by SRB assay relative to control; format: functional
[7] = Cytotoxicity against human Hs578T cells assessed as cell growth after 48 hrs by SRB assay relative to control; format: functional, Hs-578T
DU-145 = experiment: Cytotoxicity against human DU145 cells assessed as cell growth after 48 hrs by SRB assay relative to control; format: functional

COc1ccc(C(=O)CSc2nc(C)c(C)n2Nc2ccccc2)cc1
Activity (TK-10): 109.3%
Activity (RXF 393): 85.48%
Activity (CAKI-1): 81.41%
Activity (ACHN): 99.05%
Activity (786-0): 90.03%
Activity (A498): 90.87%
Activity [1]: 83.61%
Activity (OVCAR-8): 100.7%
Activity (OVCAR-3): 101.3%
Activity (IGROV-1): 103.3%
Activity (SK-MEL-5): 100.7%
Activity [2]: 99.75%
Activity (SK-MEL-28): 113.1%
Activity (SK-MEL-2): 94.21%
Activity (M14): 91.19%
Activity (MDA-MB-435): 95.25%
Activity (LOX IMVI): 104.8%
Activity (SNB-75): 93.05%
Activity (SNB-19): 96.63%
Activity (SF-539): 100.8%
Activity (SF-295): 90.39%
Activity (SW-620): 105.7%
Activity (KM12): 97.97%
Activity (HCT-116): 96.71%
Activity (HCT-15): 88.63%
Activity (COLO 205): 100.5%
Activity (NCI-H460): 96.54%
Activity (NCI-H322M): 82.37%
Activity (NCI-H23): 88.38%
Activity (NCI-H226): 92.08%
Activity (HOP-92): 82.74%
Activity (HOP-62): 100.7%
Activity (SR): 83.4%
Activity (RPMI-8226): 94.68%
Activity (K562): 87.79%
Activity (HL-60(TB)): 87.13%
Activity (CCRF-CEM): 89.68%
MIC (Pichia kudriavzevii): 800 µg/mL (≈ 2180 µM)
MIC (Nakaseomyces glabratus): 800 µg/mL (≈ 2180 µM)
MIC (Staphylococcus aureus): 800 µg/mL (≈ 2180 µM)
MIC (Enterococcus faecalis [3]): 800 µg/mL (≈ 2180 µM)
MIC (Enterococcus faecalis [4]): 400 µg/mL (≈ 1090 µM)
MIC (Escherichia coli [5]): 400 µg/mL (≈ 1090 µM)
MIC (Escherichia coli [6]): 800 µg/mL (≈ 2180 µM)
Activity (BT-549): 84.66%
Activity (MDA-MB-231): 89.05%
Activity [7]: 107.2%
Activity (DU-145): 111.6%

Cc1nc(SCC(=O)c2ccc(Cl)cc2)n(Nc2ccccc2)c1C
Activity (TK-10): 117.2%
Activity (RXF 393): 96.88%
Activity (CAKI-1): 78.89%
Activity (ACHN): 102.7%
Activity (786-0): 97.67%
Activity (A498): 82.14%
Activity [1]: 93.39%
Activity (OVCAR-8): 96.67%
Activity (OVCAR-3): 108.6%
Activity (IGROV-1): 102.1%
Activity (SK-MEL-5): 96.98%
Activity [2]: 97.88%
Activity (SK-MEL-28): 108.7%
Activity (SK-MEL-2): 91.02%
Activity (M14): 107.4%
Activity (MDA-MB-435): 99.36%
Activity (LOX IMVI): 101.4%
Activity (SNB-75): 94.11%
Activity (SNB-19): 89%
Activity (SF-539): 103.9%
Activity (SF-295): 89.88%
Activity (SW-620): 108.9%
Activity (KM12): 105%
Activity (HCT-116): 90.7%
Activity (HCT-15): 92.65%
Activity (COLO 205): 96.15%
Activity (NCI-H460): 98.85%
Activity (NCI-H322M): 88.63%
Activity (NCI-H23): 89.25%
Activity (NCI-H226): 95.15%
Activity (HOP-92): 76.51%
Activity (HOP-62): 101.2%
Activity (SR): 86.04%
Activity (RPMI-8226): 92.33%
Activity (K562): 88.1%
Activity (HL-60(TB)): 92.02%
Activity (CCRF-CEM): 81.64%
MIC (Pichia kudriavzevii): 200 µg/mL (≈ 538 µM)
MIC (Nakaseomyces glabratus): 400 µg/mL (≈ 1080 µM)
MIC (Staphylococcus aureus): 800 µg/mL (≈ 2150 µM)
MIC (Enterococcus faecalis [3]): 400 µg/mL (≈ 1080 µM)
MIC (Enterococcus faecalis [4]): 200 µg/mL (≈ 538 µM)
MIC (Escherichia coli [5]): 800 µg/mL (≈ 2150 µM)
MIC (Escherichia coli [6]): 400 µg/mL (≈ 1080 µM)
Activity (BT-549): 104.7%
Activity (MDA-MB-231): 95.48%
Activity [7]: 96.61%
Activity (DU-145): 115.8%

Cc1nc(SCC(=O)c2ccccc2)n(Nc2ccccc2)c1C
Activity (TK-10): 127.6%
Activity (RXF 393): 103.1%
Activity (CAKI-1): 88.11%
Activity (ACHN): 106.6%
Activity (786-0): 106.4%
Activity (A498): 91.12%
Activity [1]: 96.87%
Activity (OVCAR-8): 99.29%
Activity (OVCAR-3): 109.4%
Activity (IGROV-1): 98.59%
Activity (SK-MEL-5): 99.8%
Activity [2]: 97.59%
Activity (SK-MEL-28): 110.7%
Activity (SK-MEL-2): 97.16%
Activity (M14): 101.1%
Activity (MDA-MB-435): 97.36%
Activity (LOX IMVI): 102.1%
Activity (SNB-75): 108.2%
Activity (SNB-19): 98.31%
Activity (SF-539): 104.4%
Activity (SF-295): 86.98%
Activity (SW-620): 109.1%
Activity (KM12): 104.6%
Activity (HCT-116): 86.93%
Activity (HCT-15): 99.3%
Activity (COLO 205): 110.9%
Activity (NCI-H460): 104.4%
Activity (NCI-H322M): 90.31%
Activity (NCI-H23): 93.43%
Activity (NCI-H226): 99.07%
Activity (HOP-92): 91.79%
Activity (HOP-62): 97.72%
Activity (SR): 82.35%
Activity (RPMI-8226): 102.2%
Activity (K562): 89.68%
Activity (HL-60(TB)): 91%
Activity (CCRF-CEM): 90.27%
MIC (Pichia kudriavzevii): 400 µg/mL (≈ 1190 µM)
MIC (Nakaseomyces glabratus): 800 µg/mL (≈ 2370 µM)
MIC (Staphylococcus aureus): 800 µg/mL (≈ 2370 µM)
MIC (Enterococcus faecalis [3]): 800 µg/mL (≈ 2370 µM)
MIC (Enterococcus faecalis [4]): 800 µg/mL (≈ 2370 µM)
MIC (Escherichia coli [5]): 800 µg/mL (≈ 2370 µM)
MIC (Escherichia coli [6]): 800 µg/mL (≈ 2370 µM)
Activity (BT-549): 88.93%
Activity (MDA-MB-231): 98.84%
Activity [7]: 108%
Activity (DU-145): 109.3%
